One block for each compound: values may come before it. Active and inactive are the calls of the source. No cut-off for these calls is given here.
Key:
Lymphocyte [1] = experiment: Antioxidant activity in FRDA patient derived lymphocytes assessed as inhibition of DEM-mediated lipid peroxidation at 0.1 to 2.5 uM pretreated for 16 hrs followed by DEM addition measured after 120 mins by C11-BODIPY581/591 probe-based FACS analysis; type: functional, cell-based; conditions: Homo sapiens
[2] = Metabolic stability in bovine liver microsomes assessed as compound recovery at 25 uM after 30 mins in presence of beta-NADPH by HPLC method; type: ADME, Bos taurus, microsome; conditions: cattle, read-out: Drug recovery
Lymphocyte [3] = experiment: (§1) Cytoprotective activity against DEM-induced oxidative stress in FRDA patient derived lymphocytes assessed as increase in cell viability at 0.1 to 2.5 uM pretreated for 16 hrs followed by DEM addition measured after 6 hrs by calcein acetoxy-methyl-ester/ethidium homodimer-1 staining-based flow cytometric analysis; type: functional; conditions: Homo sapiens
Lymphocyte [4] = experiment: Cytoprotective activity in DEM-treated FRDA patient derived lymphocytes assessed as preservation of mitochondrial inner membrane potential at 2.5 uM pretreated for 16 hrs followed by DEM addition measured after 120 mins by TMRM dye-based flow cytometric analysis; type: functional, cell-based; conditions: Homo sapiens
Lymphocyte [5] = experiment: Antioxidant activity in FRDA patient derived lymphocytes assessed as inhibition of DEM-mediated reactive oxygen species formation at 0.1 to 2.5 uM pretreated for 16 hrs followed by DEM addition measured after 80 mins by DCFH-DA dye-based flow cytometric analysis; type: functional, cell-based; conditions: Homo sapiens
Lymphocyte [6] = experiment: as §1, with “at” for “at 0.1 to”; type: functional; conditions: Homo sapiens
Lymphocyte [7] = experiment: Antioxidant activity in FRDA patient derived lymphocytes assessed as inhibition of DEM-mediated lipid peroxidation at 0.1 to 0.5 uM pretreated for 16 hrs followed by DEM addition measured after 120 mins by C11-BODIPY581/591 probe-based FACS analysis; type: functional, cell-based; conditions: Homo sapiens
Lymphocyte [8] = experiment: Antioxidant activity in FRDA patient derived lymphocytes assessed as inhibition of DEM-mediated reactive oxygen species formation at 2.5 uM pretreated for 16 hrs followed by DEM addition measured after 80 mins by DCFH-DA dye-based flow cytometric analysis; type: functional, cell-based; conditions: Homo sapiens
Lymphocyte [9] = experiment: Cytoprotective activity in DEM-treated FRDA patient derived lymphocytes assessed as preservation of mitochondrial inner membrane potential at 0.5 uM pretreated for 16 hrs followed by DEM addition measured after 120 mins by TMRM dye-based flow cytometric analysis; type: functional, cell-based; conditions: Homo sapiens
Lymphocyte [10] = experiment: Cytoprotective activity in FRDA patient derived lymphocytes cultured in glucose-free media supplemented with galactose assessed as total intracellular ATP levels at 1 uM after 48 hrs by luciferin-luciferase reaction-based bioluminescence assay relative to control; type: functional, Homo sapiens
Lymphocyte [11] = experiment: Cytoprotective activity in FRDA patient derived lymphocytes cultured in glucose-free media supplemented with galactose assessed as total intracellular ATP levels at 25 uM after 48 hrs by luciferin-luciferase reaction-based bioluminescence assay relative to control; type: functional, Homo sapiens
Lymphocyte [12] = experiment: Cytoprotective activity in FRDA patient derived lymphocytes cultured in glucose-free media supplemented with galactose assessed as total intracellular ATP levels at 5 uM after 48 hrs by luciferin-luciferase reaction-based bioluminescence assay relative to control; type: functional, Homo sapiens

SMILES: CCCCCCCCCCCCCCCCc1nc(N2CCC2)nc(OC2CCC2)c1O
inhibition (Lymphocyte [1]): Active | inhibition (Lymphocyte [5]): Active | Activity (Lymphocyte [3]): Active | Activity (Lymphocyte [4]): Active

SMILES: Cc1nc(N2CCC2)nc(N2CCC2)c1O
inhibition (Lymphocyte [1]): inactive

SMILES: Cc1nc(OC2CCC2)nc(OC2CCC2)c1O
inhibition (Lymphocyte [1]): inactive

SMILES: CCCCCCCCCCCCCCc1nc(OC2CCC2)nc(OC2CCC2)c1O
inhibition (Lymphocyte [1]): Active | Activity (Lymphocyte [6]): Active | inhibition (Lymphocyte [7]): inactive | remaining at 0.5 h, 25 µM [2]: 72% | Activity (Lymphocyte [4]): Active | inhibition (Lymphocyte [8]): Active

SMILES: Cc1nc(N2CCC2)nc(OC2CCC2)c1O
inhibition (Lymphocyte [1]): inactive

SMILES: Cc1nc(OC2CCC2)nc(N2CCC2)c1O
inhibition (Lymphocyte [1]): inactive

SMILES: CCCCCCCCCCCCCCc1nc(N2CCC2)nc(N2CCC2)c1O
inhibition (Lymphocyte [1]): inactive | remaining at 0.5 h, 25 µM [2]: 63% | Activity (Lymphocyte [3]): Active | Activity (Lymphocyte [4]): Active

SMILES: COC1=C(OC)C(=O)C(CCCCCCCCCCO)=C(C)C1=O [IDEBENONE]
inhibition (Lymphocyte [1]): Active | Activity (Lymphocyte [9]): Active | remaining at 0.5 h, 25 µM [2]: 61% | Activity (Lymphocyte [4]): Active | Activity (Lymphocyte [10]): 98% | Activity (Lymphocyte [11]): 3% | Activity (Lymphocyte [12]): 73%

Continued, in another order:

remaining at 0.5 h, 25 µM [2]: 62%
SMILES: CCCCCCCCCCCCCCCCc1nc(N2CCC2)nc(N2CCC2)c1O
inhibition (Lymphocyte [1]): inactive | Activity (Lymphocyte [3]): Active | Activity (Lymphocyte [4]): Active

remaining at 0.5 h, 25 µM [2]: 60%
SMILES: CCCCCCCCCCCCCCCCc1nc(OC2CCC2)nc(OC2CCC2)c1O
inhibition (Lymphocyte [1]): inactive

remaining at 0.5 h, 25 µM [2]: 63%
SMILES: CCCCCCCCCCCCCCc1nc(N2CCC2)nc(OC2CCC2)c1O
inhibition (Lymphocyte [1]): Active | inhibition (Lymphocyte [5]): Active | Activity (Lymphocyte [3]): Active | Activity (Lymphocyte [4]): Active

remaining at 0.5 h, 25 µM [2]: 63%
SMILES: CCCCCCCCCCCCCCCCc1nc(OC2CCC2)nc(N2CCC2)c1O
inhibition (Lymphocyte [1]): Active | inhibition (Lymphocyte [5]): Active | Activity (Lymphocyte [3]): Active | Activity (Lymphocyte [4]): Active

remaining at 0.5 h, 25 µM [2]: 77%
SMILES: CCCCCCCCCCCCCCc1nc(OC2CCC2)nc(N2CCC2)c1O
inhibition (Lymphocyte [1]): Active | inhibition (Lymphocyte [5]): Active | Activity (Lymphocyte [3]): Active | Activity (Lymphocyte [4]): Active

From ChEMBL document CHEMBL3997815, “Influence of substituent heteroatoms on the cytoprotective properties of pyrimidinol antioxidants” (Bioorg Med Chem, 2017)
